Results as given in paper PMC6156078, “Thalidomide promotes degradation of SALL4, a transcription factor implicated in Duane Radial Ray syndrome” (eLife, 2018).
Entries after “also recorded” stand apart in the source; their conditions may differ.

How the values were obtained:
CISD2 = assay: TMT proteomics SK-N-DZ cells: CISD2 abundance; details: 5 h vs DMSO, CC-220 0.1 µM
ZFP91 = ZFP91 (Homo sapiens, UniProt Q96JP5+Q96SW2); assay: TMT proteomics SK-N-DZ cells: ZFP91 abundance; details: 5 h vs DMSO, pomalidomide 1 µM, lenalidomide 5 µM, CC-220 0.1 µM, dBET57 1 µM
MRPL3 = assay: TMT proteomics SK-N-DZ cells: MRPL3 abundance; details: 5 h vs DMSO, CC-220 0.1 µM
ATP5C1 = assay: TMT proteomics SK-N-DZ cells: ATP5C1 abundance; details: 5 h vs DMSO, CC-220 0.1 µM
MRPS5 = assay: TMT proteomics SK-N-DZ cells: MRPS5 abundance; details: 5 h vs DMSO, CC-220 0.1 µM
[1] = system: IMiD-dependent neo-substrates; assay: TMT proteomics profiling of IMiD-dependent neo-substrates (hESC, Kelly, SK-N-DZ, MM1s); type: cell-based, human; details: SK-N-DZ cells, 0.1 µM CC-220, 5 h (Figure 1—figure supplement 1C)
Source text: We established a mass spectrometry-based workflow (Figure 1—figure supplement 1A) to detect IMiD-induced protein degradation in hESC.
Proteins were precipitated using methanol/chloroform.

SALL4 = assay: Western blot of SALL4: thalidomide with proteasome/NEDD8/UBA1 inhibitor co-treatment; details: Kelly, HEK293T, SK-N-DZ cells; thalidomide + 5 µM bortezomib, 5 µM MLN4924 or 0.5 µM MLN7243, 24 h
IMiD-dependent targets = assay: Rescue proteomics: pomalidomide with MLN4924 co-treatment in SK-N-DZ cells; details: 1 µM pomalidomide + 5 µM MLN4924, 5 h

Sequence of ZFP91 (Q96JP5 2-570 limits assumed): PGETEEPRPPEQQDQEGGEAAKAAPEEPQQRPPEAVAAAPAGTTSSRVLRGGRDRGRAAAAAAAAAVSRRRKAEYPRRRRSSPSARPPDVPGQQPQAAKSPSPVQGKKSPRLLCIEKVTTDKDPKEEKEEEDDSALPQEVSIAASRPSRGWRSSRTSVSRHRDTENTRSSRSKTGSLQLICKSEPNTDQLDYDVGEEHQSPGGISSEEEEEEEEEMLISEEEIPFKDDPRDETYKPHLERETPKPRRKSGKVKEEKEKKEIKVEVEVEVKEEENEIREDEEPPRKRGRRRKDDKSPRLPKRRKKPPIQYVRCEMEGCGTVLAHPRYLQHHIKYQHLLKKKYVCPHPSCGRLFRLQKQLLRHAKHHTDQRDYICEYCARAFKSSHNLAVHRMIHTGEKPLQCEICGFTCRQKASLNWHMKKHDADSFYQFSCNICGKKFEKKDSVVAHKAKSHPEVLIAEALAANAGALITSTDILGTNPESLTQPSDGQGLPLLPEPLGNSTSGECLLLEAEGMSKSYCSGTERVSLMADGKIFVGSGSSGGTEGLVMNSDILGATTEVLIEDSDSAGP
Sequence of ZFP91 (Q96SW2 whole entry): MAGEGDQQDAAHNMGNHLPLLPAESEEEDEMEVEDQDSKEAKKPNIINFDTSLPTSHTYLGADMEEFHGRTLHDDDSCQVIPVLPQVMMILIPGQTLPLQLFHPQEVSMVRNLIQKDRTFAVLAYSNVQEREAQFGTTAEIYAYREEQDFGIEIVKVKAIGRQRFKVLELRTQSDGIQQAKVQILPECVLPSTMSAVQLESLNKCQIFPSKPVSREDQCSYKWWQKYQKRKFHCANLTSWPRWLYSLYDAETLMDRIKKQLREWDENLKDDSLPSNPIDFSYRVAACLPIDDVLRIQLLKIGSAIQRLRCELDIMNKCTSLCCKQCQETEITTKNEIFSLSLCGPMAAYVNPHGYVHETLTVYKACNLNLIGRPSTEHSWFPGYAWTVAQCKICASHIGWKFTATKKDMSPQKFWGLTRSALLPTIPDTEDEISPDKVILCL
Sequence of ZFP91 (Q16531 whole entry partner): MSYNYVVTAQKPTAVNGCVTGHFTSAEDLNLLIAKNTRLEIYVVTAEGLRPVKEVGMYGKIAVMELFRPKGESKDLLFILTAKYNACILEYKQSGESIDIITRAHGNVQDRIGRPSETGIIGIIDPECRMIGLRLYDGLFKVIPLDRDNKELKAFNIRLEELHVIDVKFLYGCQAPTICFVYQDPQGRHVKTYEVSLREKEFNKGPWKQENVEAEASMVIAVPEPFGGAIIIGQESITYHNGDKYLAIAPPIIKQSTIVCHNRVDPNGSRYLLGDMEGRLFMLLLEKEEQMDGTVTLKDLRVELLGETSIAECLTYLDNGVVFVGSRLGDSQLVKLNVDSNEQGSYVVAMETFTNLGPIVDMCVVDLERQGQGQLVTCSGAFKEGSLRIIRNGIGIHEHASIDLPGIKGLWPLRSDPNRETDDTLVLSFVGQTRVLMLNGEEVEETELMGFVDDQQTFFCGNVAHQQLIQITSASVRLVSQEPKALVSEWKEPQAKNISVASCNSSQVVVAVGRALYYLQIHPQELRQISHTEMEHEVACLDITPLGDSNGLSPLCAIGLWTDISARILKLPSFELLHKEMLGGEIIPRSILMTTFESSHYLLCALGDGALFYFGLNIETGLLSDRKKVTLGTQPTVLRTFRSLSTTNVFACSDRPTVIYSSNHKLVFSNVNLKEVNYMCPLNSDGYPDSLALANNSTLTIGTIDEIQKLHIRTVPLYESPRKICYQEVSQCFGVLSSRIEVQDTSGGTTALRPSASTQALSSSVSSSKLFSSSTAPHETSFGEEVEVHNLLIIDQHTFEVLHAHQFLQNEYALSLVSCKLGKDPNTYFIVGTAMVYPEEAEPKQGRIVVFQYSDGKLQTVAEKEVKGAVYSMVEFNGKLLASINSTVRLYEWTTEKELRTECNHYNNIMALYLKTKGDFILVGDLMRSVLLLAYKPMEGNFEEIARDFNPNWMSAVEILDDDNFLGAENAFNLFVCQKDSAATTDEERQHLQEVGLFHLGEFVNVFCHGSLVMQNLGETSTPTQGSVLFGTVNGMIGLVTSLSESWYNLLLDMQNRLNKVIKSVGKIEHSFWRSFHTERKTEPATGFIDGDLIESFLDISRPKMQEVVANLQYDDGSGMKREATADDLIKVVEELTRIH

O=C1CC[C@H](N2Cc3c(OCc4ccc(CN5CCOCC5)cc4)cccc3C2=O)C(=O)N1 [CC-220]
logFC CISD2 (CISD2): -0.1946 | logFC ZFP91 (ZFP91): -2.809 | logFC MRPL3 (MRPL3): -0.1878 | logFC ATP5C1 (ATP5C1): -0.1591 | logFC MRPS5 (MRPS5): -0.1562 | induction of degradation of ZnF targets including SALL4 [1]: effective inducers of ZnF targets including SALL4 degradation

NS(=O)(=O)OC[C@@H]1C[C@@H](n2ccc3c(N[C@H]4CCc5ccccc54)ncnc32)C[C@@H]1O [MLN4924]
effect of co-treatment on IMiD-induced SALL4 degradation (SALL4): abrogated | effect of co-treatment on IMiD-induced degradation of targets (IMiD-dependent targets): abrogated the degradation of all IMiD-dependent targets; also recorded: fully abrogated

NS(=O)(=O)OC[C@H]1C[C@@H](Nc2ccnc3cc(-c4cccc(SC(F)(F)F)c4)nn23)[C@H](O)[C@@H]1O [MLN7243]
effect of co-treatment on IMiD-induced SALL4 degradation (SALL4): abrogated

CC(C)C[C@H](NC(=O)[C@H](Cc1ccccc1)NC(=O)c1cnccn1)B(O)O [bortezomib]
effect of co-treatment on IMiD-induced SALL4 degradation (SALL4): abrogated
